Results taken from patent US20250340563A1, “FUSED PYRIDAZINE DERIVATIVES AS NLRP3 INHIBITORS” (Takeda Pharmaceutical Company Limited, priority 2022, published 2025).

Assays:
NLRP3 inflammasome = NLRP3 inflammasome (Homo sapiens, UniProt Q96P20); test: IL-1β assay in IFN-γ-differentiated, LPS-primed, ATP-activated THP-1 cells (ELISA); type: cell-based; conditions: 50 ng/mL LPS priming, 2.5 mM ATP activation, 2 hours
Procedure, shortened: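 Supernatant IL-1β is quantified by ELISA after 2 h of 2.5 mM ATP stimulation at 37 °C, with IC50 taken from a four-parameter fit of % inhibition. Before this, THP-1 macrophages (25 ng/mL IFN-γ, 24 h) were LPS-primed (50 ng/mL, 24 h, no FBS) and exposed to serially diluted compound for 30 min.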

NF-κB pathway = test: TNF-α assay in IFN-γ-differentiated, LPS-stimulated THP-1 cells (ELISA); type: cell-based; conditions: Homo sapiens, 50 ng/mL LPS, 3 hours
Protocol: Monocytic THP-1 cells (ATCC: TIB-202) are maintained in accordance with the provider's instructions in RPMI media (Life Technologies, Cat #A10491-01); RPMI is supplemented with 10% heat inactivated fetal bovine serum (Hyclone Cat #SH30396.03). The cells are differentiated into macrophages by the addition of 25 ng/mL IFN-γ for 24 hours at 37° C./5% CO2. Media is exchanged with fresh media with no FBS. The cells are plated at 40,000 cells per well in 384-well flat-bottom cell culture plates (Costar 3764) containing compounds (added in 1:1000) in a 1:3.16 serial dilution series in DMSO and are incubated for 30 minutes at 37° C./5% CO2. The NF-κB pathway is activated with the addition of 50 ng/mL LPS and the cells are incubated for 3 hours at 37° C./5% CO2. At the end of the incubation period, supernatant (40 μL) is removed, and […] are monitored using an ELISA (Human TNF-α ELISA, R&D systems, Cat #DY210) according to the manufacturer's instructions.
The IC50 values are calculated from a plot of percentage of inhibition versus the inhibitor concentration by a logistics curve fit according to: Y=[Bottom+(Top−Bottom)]/(1+10^[(Log IC50−X)·Hill Slope], where Y is the % inhibition at the inhibitor concentration, X, “Bottom” is the lowest inhibition value, i.e. 0%, “Top” is the maximum inhibition value, i.e. 100%, and the “Hill Slope” describes the slope of the sigmoidal curve between the “Bottom” and “Top” values. The curve fitting was conducted with internally developed software.

Sequence of NLRP3 inflammasome (Q96P20 whole entry): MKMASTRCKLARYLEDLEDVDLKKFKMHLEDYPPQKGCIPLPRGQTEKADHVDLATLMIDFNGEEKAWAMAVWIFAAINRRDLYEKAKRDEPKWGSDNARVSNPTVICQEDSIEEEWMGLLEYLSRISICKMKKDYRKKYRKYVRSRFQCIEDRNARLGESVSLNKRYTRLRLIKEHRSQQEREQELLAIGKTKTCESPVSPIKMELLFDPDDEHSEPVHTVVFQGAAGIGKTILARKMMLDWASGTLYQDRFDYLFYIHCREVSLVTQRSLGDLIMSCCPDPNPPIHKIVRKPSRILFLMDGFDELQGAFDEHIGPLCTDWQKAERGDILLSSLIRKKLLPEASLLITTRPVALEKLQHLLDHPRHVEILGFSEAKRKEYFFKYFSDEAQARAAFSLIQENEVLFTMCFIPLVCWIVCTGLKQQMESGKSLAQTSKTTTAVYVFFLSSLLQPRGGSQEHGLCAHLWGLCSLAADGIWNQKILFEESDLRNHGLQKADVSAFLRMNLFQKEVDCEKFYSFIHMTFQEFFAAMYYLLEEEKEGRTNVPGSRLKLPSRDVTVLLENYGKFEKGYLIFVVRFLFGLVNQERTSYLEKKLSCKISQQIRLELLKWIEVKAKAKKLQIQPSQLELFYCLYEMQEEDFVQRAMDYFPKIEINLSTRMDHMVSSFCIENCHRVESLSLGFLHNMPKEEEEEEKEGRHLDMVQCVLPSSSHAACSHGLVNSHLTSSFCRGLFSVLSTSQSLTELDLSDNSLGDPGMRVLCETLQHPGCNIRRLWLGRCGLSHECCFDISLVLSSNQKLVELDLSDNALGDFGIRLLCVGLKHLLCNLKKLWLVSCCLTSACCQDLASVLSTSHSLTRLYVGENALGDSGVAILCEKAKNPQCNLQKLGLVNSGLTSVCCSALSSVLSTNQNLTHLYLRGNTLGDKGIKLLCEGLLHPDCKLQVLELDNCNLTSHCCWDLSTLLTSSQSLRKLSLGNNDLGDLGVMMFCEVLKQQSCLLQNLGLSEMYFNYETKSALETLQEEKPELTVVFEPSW

Row | Compound | IC50 (NLRP3 inflammasome) [nM] | IC50 (NF-κB pathway) [nM]
1 | COc1ccc(-c2nnc(N[C@@H]3C[C@@H](F)CN(C)C3)c3c2CCOC3)c(C(F)F)c1 [Example 206, 1-(2-(difluoromethyl)-4-methoxyphenyl)-N-((3R,5R)-5-fluoro-1-methylpiperidin-3-yl)-7,8-dihydro-5H-pyrano[3,4-d]pyridazin-4-amine] | 425 | > 30000
2 | Cc1cc2c(-c3ccc(Cl)cc3)nnc(NC3CCCN(C)C3)c2cn1 (stereo not drawn) [Example 80, 1-(4-chlorophenyl)-7-methyl-N-(1-methylpiperidin-3-yl)pyrido[3,4-d]pyridazin-4-amine] | 36 | > 30000
3 | COc1ccc(-c2nnc(N[C@@H]3CCCN(C4(C)CC4)C3)c3cnccc23)cc1 [Example 168, (R)-1-(4-methoxyphenyl)-N-(1-(1-methylcyclopropyl)piperidin-3-yl)pyrido[3,4-d]pyridazin-4-amine] | 5 | > 30000
4 | COc1ccc(-c2nnc(N[C@@H]3CCCN(C)C3)c3c(C)cccc23)cc1 [Example 56, (R)-4-(4-methoxyphenyl)-8-methyl-N-(1-methylpiperidin-3-yl)phthalazin-1-amine] | 72 | > 30000
5 | Oc1ccccc1-c1nnc(N[C@@H]2CCCN(CCF)C2)c2cnccc12 [Example 86, (R)-2-(4-((1-(2-fluoroethyl)piperidin-3-yl)amino)pyrido[3,4-d]pyridazin-1-yl)phenol] | 21 | > 30000
6 | Cc1nccc2c(-c3ccc(Cl)cc3)nnc(NC3CCCN(C)C3)c12 (stereo not drawn) [Example 76, 1-(4-chlorophenyl)-5-methyl-N-(1-methylpiperidin-3-yl)pyrido[3,4-d]pyridazin-4-amine] | 178 | > 30000
7 | COc1ccc(-c2nnc(N[C@@H]3CCCN(C)C3)c3c2CCOC3)cc1 [Example 222, (R)-1-(4-methoxyphenyl)-N-(1-methylpiperidin-3-yl)-7,8-dihydro-5H-pyrano[3,4-d]pyridazin-4-amine] | 49 | > 30000
8 | COc1ccc(-c2nnc(N[C@@H]3CCCN(CCF)C3)c3cnccc23)c(F)c1 [Example 87, (R)-1-(2-fluoro-4-methoxyphenyl)-N-(1-(2-fluoroethyl)piperidin-3-yl)pyrido[3,4-d]pyridazin-4-amine] | 33 | > 30000
9 | CN1C[C@H](F)C[C@@H](Nc2nnc(-c3ccc(Cl)cc3F)c3ccccc23)C1 [Example 176, 4-(4-chloro-2-fluorophenyl)-N-((3R,5R)-5-fluoro-1-methylpiperidin-3-yl)phthalazin-1-amine] | 37 | > 30000
10 | CN1CCC[C@@H](Nc2nnc(-c3ccc(Cl)cc3O)c3cnccc23)C1 [Example 75, (R)-5-chloro-2-(1-((1-methylpiperidin-3-yl)amino)pyrido[3,4-d]pyridazin-4-yl)phenol] | 3 | > 30000
11 | CN1C[C@H](F)C[C@@H](Nc2nnc(-c3ccccc3O)c3ccncc23)C1 (relative stereo) [Example 172, 2-(4-((trans-5-fluoro-1-methylpiperidin-3-yl)amino)pyrido[3,4-d]pyridazin-1-yl)phenol] | 20 | > 30000
12 | Cc1cc(Cl)ccc1-c1nnc(NC2CCCN(C)C2)c2ccccc12 (stereo not drawn) [Example 46, 4-(4-chloro-2-methylphenyl)-N-(1-methylpiperidin-3-yl)phthalazin-1-amine] | 113 | > 30000
13 | COc1ccc(-c2nnc(N[C@@H]3C[C@@H](F)CN(C)C3)c3ccccc23)c(F)c1 [Example 178, N-((3R,5R)-5-fluoro-1-methylpiperidin-3-yl)-4-(2-fluoro-4-methoxyphenyl)phthalazin-1-amine] | 81 | > 30000
14 | C[C@]1(O)C[C@@H](Nc2nnc(-c3ccc(Cl)cc3O)c3cnccc23)C1 [Example 94, cis-5-chloro-2-(1-((3-hydroxy-3-methylcyclobutyl)amino)pyrido[3,4-d]pyridazin-4-yl)phenol] | 102 | 
15 | CN1CCC[C@@H](Nc2nnc(-c3ccc(OC(F)F)cc3)c3ccncc23)C1 [Example 27, (R)-1-(4-(difluoromethoxy)phenyl)-N-(1-methylpiperidin-3-yl)pyrido[3,4-d]pyridazin-4-amine] | 38 | 
16 | Cc1ccccc1-c1nnc(NC2CCCN(C)C2)c2ccccc12 (stereo not drawn) [Example 12, N-(1-methylpiperidin-3-yl)-4-(o-tolyl)phthalazin-1-amine] | 2570 | 
17 | CCN1CCc2c(NC3CCCN(C)C3)nnc(-c3ccc(Cl)cc3)c2C1 (stereo not drawn) [Example 100, 4-(4-chlorophenyl)-6-ethyl-N-(1-methylpiperidin-3-yl)-5,6,7,8-tetrahydropyrido[3,4-d]pyridazin-1-amine] | 2690 | 
18 | COc1ccc(-c2nnc(N[C@@H]3C[C@@H](F)CN(C)C3)c3ccncc23)cc1 [Example 179, N-((3R,5R)-5-fluoro-1-methylpiperidin-3-yl)-4-(4-methoxyphenyl)pyrido[3,4-d]pyridazin-1-amine] | 575 | 
19 | CN1CCCC(Nc2nnc(-c3ccc(Cl)cc3Cl)c3ccncc23)C1 (stereo not drawn) [Example 51, 1-(2,4-dichlorophenyl)-N-(1-methylpiperidin-3-yl)pyrido[3,4-d]pyridazin-4-amine] | 158 | 
20 | CN1CCC[C@@H](Nc2nnc(-c3ccc(C(F)F)cc3)c3ccncc23)C1 [Example 37, (R)-1-(4-(difluoromethyl)phenyl)-N-(1-methylpiperidin-3-yl)pyrido[3,4-d]pyridazin-4-amine] | 77 | 

More lines, now with the values ahead:

Row | IC50 (NLRP3 inflammasome) [nM] | IC50 (NF-κB pathway) [nM] | Compound
21 | 2300 | > 30000 | O[C@H]1C[C@@H](Nc2nnc(-c3ccc(Cl)cc3)c3ccccc23)C1 [Example 122, cis-3-((4-(4-chlorophenyl)phthalazin-1-yl)amino)cyclobutan-1-ol]
22 | 31 | > 30000 | CN1CCC[C@@H](Nc2nnc(-c3ccc(Cl)cc3)c3ccccc23)C1 [Example 139, (R)-4-(4-chlorophenyl)-N-(1-methylpiperidin-3-yl)phthalazin-1-amine]
23 | 228 | > 30000 | OC12CCC(Nc3nnc(-c4ccc(Cl)cc4)c4ccccc34)(CC1)C2 [Example 127, 4-((4-(4-chlorophenyl)phthalazin-1-yl)amino)bicyclo[2.2.1]heptan-1-ol]
24 | 27 | 21400 | Oc1ccccc1-c1nnc(N[C@@H]2CCCN(CCF)C2)c2ccccc12 [Example 60, (R)-2-(4-((1-(2-fluoroethyl)piperidin-3-yl)amino)phthalazin-1-yl)phenol]
25 | 43 | > 30000 | Clc1ccc(-c2nnc(NC3CCCN(C4CC4)C3)c3ccccc23)cc1 (stereo not drawn) [Example 144, 4-(4-chlorophenyl)-N-(1-cyclopropylpiperidin-3-yl)phthalazin-1-amine]
26 | 1090 | 7760 | Oc1cccc(Nc2nnc(-c3ccc(C4CC4)cc3)c3ccccc23)c1 [Example 19, 3-((4-(4-cyclopropylphenyl)phthalazin-1-yl)amino)phenol]
27 | 311 | > 30000 | CN1C[C@@H](F)C[C@@H](Nc2nnc(-c3ccc(Cl)cc3)c3ccccc23)C1 [Example 185, 4-(4-chlorophenyl)-N-((3R,5S)-5-fluoro-1-methylpiperidin-3-yl)phthalazin-1-amine]
28 | 2750 |  | C[C@]1(O)C[C@H](Nc2nnc(-c3ccc(Cl)cc3)c3ccccc23)C1 [Example 119, trans-3-((4-(4-chlorophenyl)phthalazin-1-yl)amino)-1-methylcyclobutan-1-ol]
29 | 3470 |  | CC(C)[C@@H]1CN(C)C[C@H]1Nc1nnc(-c2ccc(Cl)cc2)c2ccccc12 [Example 165, 4-(4-chlorophenyl)-N-((3S,4R)-4-isopropyl-1-methylpyrrolidin-3-yl)phthalazin-1-amine]
30 | 4250 |  | CN1CCCC(N(C)c2nnc(-c3ccc(Cl)cc3)c3ccccc23)C1 (stereo not drawn) [Example 112, 4-(4-chlorophenyl)-N-methyl-N-(1-methylpiperidin-3-yl)phthalazin-1-amine]
31 | 624 |  | O[C@]1(C(F)(F)F)C[C@@H](Nc2nnc(-c3ccc(Cl)cc3)c3ccccc23)C1 [Example 117, trans-3-((4-(4-chlorophenyl)phthalazin-1-yl)amino)-1-(trifluoromethyl)cyclobutan-1-ol]
32 | 4380 |  | COc1ccc(-c2nnc(Nc3cccc(O)c3)c3ncccc23)cc1 [Example 198, 3-((5-(4-methoxyphenyl)pyrido[2,3-d]pyridazin-8-yl)amino)phenol]
33 | 1660 |  | CC(C)(C)c1ccc(-c2nnc(Nc3cccc(O)c3)c3ccccc23)cn1 [Example 9, 3-((4-(6-(tert-butyl)pyridin-3-yl)phthalazin-1-yl)amino)phenol]
34 | 1120 |  | Cc1ccc(-c2nnc(Nc3cccc(O)c3)c3ccccc23)cc1 [Example 38, 3-((4-(p-tolyl)phthalazin-1-yl)amino)phenol]
